{"source": "patent US10342766B2", "about": "“6-shogaol derivatives and activities thereof” (North Carolina Agricultural and Technical State University, priority 2017, dated 2019)", "key": {"[1]": {"test_system": "human colon cancer cells HCT-116", "assay": "MTT growth inhibition, HCT-116", "assay_type": "cell-based", "details": "24 hours", "protocol": "(§1) Cell viability was determined by an MTT colorimetric assay. Briefly, human colon cancer cells HCT-116 or HT-29, were plated in 96-well microtiter plates with 3000 cells/well and allowed to attach for 24 hours at 37° C. and 5% CO2. The test compounds (in DMSO) were added to cell culture medium to desired final concentrations (final DMSO concentrations for control and treatments were 0.1%). After the cells were cultured for 24 hours, the medium was aspirated and cells were treated with 200 μL fresh medium containing 2.41 mmol/L MTT. After incubation for 3 hours at 37° C., the medium containing MTT was aspirated, 100 μL of DMSO was added to solubilize the formazan precipitate, and the plates were shaken gently for an hour at room temperature. Absorbance values were derived from the plate reading at 550 nm on a Biotek (Winooski, Vt., United States of America) microtiter plate reader. The reading reflected the number of viable cells and was expressed as a percentage of viable cells in the control. CCD-18Co cells were grown in EMEM. Both HCT-116 and HT-29 cells were cultured in McCoy's 5A medium. All of the above media were supplemented with 10% fetal bovine serum, 1% penicillin/streptomycin, and 1% glutamine, and the cells were kept in a 37° C. incubator with 95% humidity and 5% CO2."}, "[2]": {"test_system": "human colon cancer cells HT-29", "assay": "MTT growth inhibition, HT-29", "assay_type": "cell-based", "details": "24 hours", "protocol": "as §1"}, "[3]": {"assay": "Biotransformation in zebrafish embryos (cysteine conjugates, LC/MS)", "assay_type": "in vivo", "details": "5 μM in incubation medium, 8 hpf to 24 hpf", "protocol": "Fifty zebrafish embryos at the 8 hour-post-fertilization (hpf) stage were incubated at 28.5° C. in 0.3× Danieau's solution (19.3 mM NaCl, 0.23 mM KCl, 0.13 mM MgSO4, 0.2 mM Ca(NO3)2, 1.7 mM HEPES, pH 7.0) with or without 5 μM 18 and 25-27, respectively. At 24 hpf, embryos were dechorionated manually and the chorions were carefully removed one by one from the culture medium. The zebrafish embryos were harvested and kept at −80° C. till analyzed by LC/MS.\n200 μL Sodium acetate buffer solution (pH 5.0) was added to 50 zebrafish embryos. Samples were homogenized for 90 s by an Omni Bead Ruptor Homogenizer (Kennesaw, Ga., United States of America). 10 μL 10% ascorbic acid and 300 μL sodium acetate buffer were added to the homogenates. The mixture was incubated in the presence of β-glucuronidase (250 U) and sulfatase (3 U) at 37° C. for 45 min, and then 600 μL MeOH with 1% acetic acid was added. The resulting mixture was vortexed for 30 s and then centrifuged at 17000 g for 10 min. The supernatant was removed and evaporated under a gentle stream of nitrogen. The residue was reconstituted in 150 μL 90% MeOH with 0.2% acetic acid (AA), and 10 μL was analyzed directly by LC/MS.\nLC/MS analysis was carried out with a Thermo-Finnigan Spectra System, which consisted of an Accela high speed MS pump, an Accela refrigerated autosampler, and an LCQ Fleet ion trap mass detector (Thermo Electron, San Jose, Calif., United States of America) incorporated with an electrospray ionization (ESI) interface. A Gemini-NX C18 column (150 mm×4.6 mm i.d., 5 μm; Phenomenex, Torrance, Calif., United States of America) was used for separation at a flow rate of 0.3 mL/min. The column was eluted with 100% A (5% aqueous methanol with 0.2% formic acid) for 1 min, followed by linear increases in B (95% aqueous methanol with 0.2% formic acid) to 55% from 1 to 4 min, to 85% from 4 to 25 min, then to 100% B from 25 to 30 min, and then with 100% B from 30 to 35 min. The column was then re-equilibrated with 100% A for 5 min. The LC eluent was introduced into the ESI interface. The positive ion polarity mode was set for the ESI source with the voltage on the ESI interface maintained at approximately 4.6 kV. Nitrogen gas was used as the sheath gas and auxiliary gas. Optimized source parameters, including capillary temperature (260° C.), sheath gas flow rate (31 arbitrary units), auxiliary gas flow rate (16 units), tube lens (34 V), and capillary voltage 9 V, were tuned using authentic samples. The collision-induced dissociation (CID) was conducted with an isolation width 2 Da and normalized collision energy of 35 for MS^2. The mass range was measured from 100 to 800 m/z. Data acquisition was performed with Xcalibur version 2.0 (Thermo Electron, San Jose, Calif., United States of America)."}, "Nrf2": {"test_system": "Nrf2", "assay": "Nrf2 reporter activity by Tg(gstp1:GFP) fluorescence in transgenic zebrafish embryos", "assay_type": "in vivo", "details": "5 μM, 24-hour treatment from 1 dpf to 2 dpf; olfactory epithelia; relative to vehicle (DMSO = 1.00)", "protocol": "Zebrafish AB transgenic strains Tg(gstp1:GFP) were maintained in a Pentair Aquatic Ecosystem (Apopka, Fla., United States of America) fish housing unit with 14 h light/10 h dark cycle (see Tsujita, T., Li, L., Nakajima, H., Iwamoto, N., Nakajima-Takagi, Y., Ohashi, K., Kawakami, K., Kumagai, Y., Freeman, B. A., Yamamoto, M., and Kobayashi, M. (2011) “Nitro-fatty acids and cyclopentenone prostaglandins share strategies to activate the Keap1-Nrf2 system: a study using green fluorescent protein transgenic zebrafish.” Genes Cells 16, 46-57). The fish embryos were maintained at 28.5° C. in 0.3× Danieau's solution (19.3 mM NaCl, 0.23 mM KCl, 0.13 mM MgSO4, 0.2 mM Ca(NO3)2, 1.7 mM HEPES, pH 7.0) containing 30 μg/ml phenylthiourea (PTU) to inhibit pigmentation. Tg(gstp1:GFP) cross with AB wild-type strain fluorescence embryos were used for the experiment. Zebrafish embryos were washed, dechorionated and anaesthetized before observations, and fluorescence imaging for analysis.\nTransgenic zebrafish embryos at 1 day-post-fertilization (dpf) were dechorionated and placed in Petri dishes containing different chemicals diluted in 0.3× Danieau's solution containing PTU. The chemical stock was dissolved in DMSO at 5 mM concentration.\nAn Olympus MVX10 Fluorescence Macroscope (Olympus, Center Valley, Pa., United States of America) equipped with a Hamamatsu C9300-221 high-speed digital CCD camera (Hamamatsu City, Japan) was used for fluorescence microscopy. Tg(gstp1:GFP) fluorescent embryos were anaesthetized in tricaine and imaged at 2 dpf. MetaMorph Basic software (Olympus, Center Valley, Pa., United States of America) was used for image acquisition and analysis.\nQuantification of Nrf2 Reporter Activity by Tg(gstp1:\nGFP) Fluoresence in Zebrafish Model. The fluorescence intensity of the olfactory neural epithelia was quantitated using MetaMorph Basic software. In brief, GFP expression in the olfactory regions of Tg(gstp1:GFP) embryos treated with various chemicals was measured after 24-hour treatment from 1 dpf to 2 dpf. The GFP induction was detectable by fluorescence signal at the area of the olfactory epithelia in the anterior of the head region, the intensity was measured using an area of a circle of 60 pixel diameter of the fluorescence olfactory epithelia subtracted by a background non-fluorescence area next to the zebrafish embryo. Both the left and right olfactory epithelia were measured to give an average fluorescence value. The values are an average of measurements from at least 10 embryos."}}, "note": "“And” between values parts separate entries of the source, which are not always exact repeats. Identical values can stand only once.", "data": [{"compound": "CCCCCCCC(=O)/C=C/c1ccc(O)c(O)c1", "note": "[Compound 27]", "values": [{"measurement": "IC50", "setting": "[1]", "result": 34.1, "unit": "µM"}, {"measurement": "IC50", "setting": "[2]", "result": 78.4, "unit": "µM"}, {"measurement": "Cysteine conjugates found in zebrafish embryos", "setting": "[3]", "result": "four cysteine conjugates 36, 36a, 37, and 37b were found"}, {"measurement": "Ratio/CTL, Tg(gstp1:GFP) fluorescence signal", "setting": "Nrf2", "result": "9.19 and 9.19 ± 0.12"}]}]}
